Laboratory results as given in patent US7763594B2, “Compositions for the treatment of osteoarthritis and to nourish the synovial fluid” (Bioiberica, S.A., priority 2005, dated 2010).

Assays:
[1] = system: metalloprotease activity (MMP-1-2-3-12-13); assay: Inhibition of metalloprotease activity in IL-1β-stimulated human arthrosic chondrocytes (FRET substrate); assay type: cell-based; settings: 24 hours preincubation, then 100 U/ml IL-1β for 24 hours; significance p<0.05
Procedure: Solutions were prepared with the two compositions of the invention. One of them contained 160 μg/ml of hyaluronic acid and 40 μg/ml of dermatan sulphate, and was compared to hyaluronic acid at a concentration of 160 μg/ml and to dermatan sulphate at a concentration of 40 μg/ml. The other composition contained 800 μg/ml of hyaluronic acid and 200 μg/ml of dermatan sulphate and was compared to hyaluronic acid at a concentration of 800 μg/ml and to dermatan sulphate at a concentration of 200 μg/ml. The chondrocytes were isolated from cartilage pieces (from knee or hip) from […] advanced osteoarthritis, by sequential enzymatic digestion: 1 hour with hyaluronidase (0.1 mg/ml), followed by 10 hours with collagenase (type IA, 2 mg/ml) at 37° C. in DMEM/Ham's F12 medium plus penicillin (100 U/ml) and streptomycin (100 μg/ml) in a controlled CO2 atmosphere. […] Cell viability was determined by the Trypan blue exclusion method, which was in excess of 95%. […] Subsequently, supernatants were transferred to a 96-well plaque for fluorescence analysis and the FRET substrate (QXLTM 520) was added for MMP-1-2-3-12-13. The plaque was shaked and fluorescence measured a different times with excitation and emission wavelengths set at 490 nm and 520 nm, respectively. […] Means and standard errors were calculated, and an analysis of variance and Dunnett's t-test were performed. […]

[2] = system: human osteoarthritic synoviocytes; assay: Production of endogenous hyaluronic acid by human synoviocytes (ELISA of culture supernatant); assay type: cell-based
Procedure: The composition of the invention, the HA extraction and the HA fermentation were separately incubated with synoviocytes for 12 and 24-hour periods. The following concentrations were used, both of the composition of the invention and of the hyaluronic acids: 10 μg/ml, 100 μg/ml and 200 μg/ml.
Synovial tissues were obtained from three osteoarthritic joints.
Synovial tissue was introduced into a sterile vial with DMEM (Dulbecco's Modification of Eagle's Medium) (2%), penicillin (150 U/ml), streptomycin ([…]) and amphotericin B (2 μg/ml), and then placed in a refrigerator (temperature: 0-4° C.) for transferral to the cell culture area. The synovial tissue was diced into fragments approximately sized to 2×2×2 mm^3. The fragments were washed three times in culture medium (RPMI 2% P/S/A). 20 ml of culture medium with 10% trypsin was added, and then incubated in a water bath at 37° C. for 10-15 minutes. Subsequently, the synovium was digested with 25 ml of collagenase solution [2 mg/ml type II collagenase; 5% fetal calf serum (FCS); 2% P/S/A; 1% L-glutamine; and deoxyribonuclease I 0.1 mg/ml or 150 U/l in RPMI]. The vial was introduced into a rotary shaker at 37° C. for approximately 2-4 hours. The cells were strained through a nylon filter with 25 μm diameter pores. A cell count was conducted and the cells were grown to a density of 5,000 to 10,000 cell/cm^2 in culture bottles of 25 or 75 cm^2 surface. The culture medium used was RPM supplemented with 10% FCS, 1% P/S and 1% L-glutamine. The synoviocytes used in the experiments were all from passages 2-3.
Following a 24-hour period culture, the synoviocytes (100,000 cells per well in a 24-well plate with 250 μl of medium) were stimulated using the composition of the invention, the HA extraction and the HA fermentation for 12 and 24-hour periods. Then, the supernatant of the different wells was harvested. The endogenous hyaluronic acid content was measured using an ELISA (Corgenix Inc. USA).
Results are shown as the average of 9 individual experiments performed on the cultures. Results are expressed as averages±S.D. and S.E. The statistical analysis was done using a two-tailed unpaired Student's T-test. A statistical difference is considered significant when p<0.05.

Substance | reduction of metalloprotease activity (in words) [1] | level of endogenous hyaluronic acid in supernatant ([2]; 12-hour period, 100 μg/ml) | level of endogenous hyaluronic acid in supernatant ([2]; 24-hour period, 100 μg/ml) | level of endogenous hyaluronic acid in supernatant ([2]; 24-hour period, 200 μg/ml) | level of endogenous hyaluronic acid in supernatant ([2]; 12-hour period, 200 μg/ml)
dermatan sulphate | reduction of metalloprotease activity, albeit not at a statistically significant level |  |  |  | 
hyaluronic acid [HA extraction] |  | 25,762 ng/ml | 27,634 ng/ml | 91,538 ng/ml | 
hyaluronic acid [hyaluronic acid (HA)] | reduction of metalloprotease activity, albeit not at a statistically significant level |  |  |  | 
sodium hyaluronate [HA fermentation] |  | 9,724 ng/ml | 15,706 ng/ml | 72,594 ng/ml | 62,618 ng/ml
